The source made the active and inactive calls. No cut-off for these calls is given here.
Tests used:
Homo sapiens [1] = species on record: Homo sapiens; experiment: Inhibition of telomerase extension activity at 50 uM by PCR based TRAP assay
[2] = Cell cycle arrest in […] cells assessed as accumulation at Sub G1 phase at 75 uM; type: functional, cell-based; conditions: Homo sapiens
[3] = Cytotoxicity against […] cells by MTT assay; type: functional, cell-based; conditions: Homo sapiens
[4] = Cell cycle arrest in […] cells assessed as accumulation at G1 phase at 75 uM; type: functional, cell-based; conditions: Homo sapiens
[5] = Cell cycle arrest in […] cells assessed as accumulation at S phase at 75 uM; type: functional, cell-based; conditions: Homo sapiens
[6] = Cell cycle arrest in […] cells assessed as accumulation at G2/M phase at 75 uM; type: functional, cell-based; conditions: Homo sapiens
[7] = Cell cycle arrest in […] cells assessed as accumulation at Sub G1 phase at 300 uM; type: functional, cell-based; conditions: Homo sapiens
[8] = Cell cycle arrest in […] cells assessed as accumulation at G1 phase at 300 uM; type: functional, cell-based; conditions: Homo sapiens
[9] = Cell cycle arrest in […] cells assessed as accumulation at S phase at 300 uM; type: functional, cell-based; conditions: Homo sapiens
[10] = Cell cycle arrest in […] cells assessed as accumulation at G2/M phase at 300 uM; type: functional, cell-based; conditions: Homo sapiens
[11] = Binding affinity to human telomeric DNA
Homo sapiens [12] = species on record: Homo sapiens; experiment: Stabilization effect on human telomeric DNA assessed as differential melting temperature by FRET assay
Homo sapiens [13] = species on record: Homo sapiens; experiment: Stabilization effect on human telomeric DNA assessed as differential melting temperature in the presence of double strand DNA by FRET assay
Homo sapiens [14] = species on record: Homo sapiens; experiment: Stabilization effect on human telomeric DNA assessed as differential melting temperature by DSC assay
[15] = Binding affinity to hairpin DNA; design: species or system Homo sapiens

Activity (Homo sapiens [1])	Kd [11] [µM]	ΔTm (Homo sapiens [12]) [°C]	ΔTm (Homo sapiens [13]) [°C]	ΔTm (Homo sapiens [14]) [°C]	Kd [15] [µM]	Compound	Activity [2] [%]	IC50 [3] [µM]	Activity [4] [%]	Activity [5] [%]	Activity [6] [%]	Activity [7] [%]	Activity [8] [%]	Activity [9] [%]	Activity [10] [%]
Active	14.5	12	12	6.6		NCC1=C2CNC(=O)C3=CC=C(CNC(=O)c4cc(CN)c(o4)CNC(=O)C4=CC=C(CNC(=O)C(=C1)O2)O4)O3	47	500	23.5	8.8	18.8	49	39	4.8	5.5
Active	3.1	17	17	9.2		NCCC(=O)NCC1=C2CNC(=O)C3=CC=C(CNC(=O)c4cc(CNC(=O)CCN)c(o4)CNC(=O)C4=CC=C(CNC(=O)C(=C1)O2)O4)O3	46	500	31.5	7	11.5	48.5	41.4	4.2	4.8
	29	9	7	2	950	NCc1cc2oc1CNC(=O)C1=CC=C(CNC(=O)C3=CC=C(CNC2=O)O3)O1									
	21	10	7	3	700	NCCC(=O)NCc1cc2oc1CNC(=O)C1=CC=C(CNC(=O)C3=CC=C(CNC2=O)O3)O1									
